In patent US11084800B2 (Achillion Pharmaceuticals, Inc., priority 2017, dated 2021):

target: Human Factor D (Homo sapiens (Human), UniProt P00746); assay: Human Factor D Assay; format: biochemical; conditions: Factor D inhibition, assay of Example 10; read-out: IC5 (Stars)
How it was run: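 Thioester substrate Z-L-Lys-SBz (100 μM) with Ellman's reagent DTNB (100 μM) reports activity of 80 nM human serum-derived enzyme, kinetically at 405 nm over 30 min. Compound preincubated 5 min, room temperature, pH 7.5 Tris/1 M NaCl; IC50 by nonlinear fit of rates.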

Human Factor D, sequence (P00746 26-253): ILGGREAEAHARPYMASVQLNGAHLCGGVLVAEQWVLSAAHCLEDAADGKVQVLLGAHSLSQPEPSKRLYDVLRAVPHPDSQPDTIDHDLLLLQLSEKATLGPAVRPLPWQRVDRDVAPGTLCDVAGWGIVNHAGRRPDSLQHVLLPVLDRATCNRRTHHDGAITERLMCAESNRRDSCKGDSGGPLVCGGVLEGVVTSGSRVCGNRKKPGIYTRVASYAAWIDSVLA

Structure (SMILES)	IC50
CC(=O)c1nn(CC(=O)N2[C@H](C(=O)Nc3nc(Br)ccc3C)C[C@@]3(CN4CC5(CCC5)C4)C[C@@H]23)c2c(C)nc(-c3cnc(C)nc3)cc12 [Compound 344, (1R,3S,5R)-5-(2-azaspiro[3.3]heptan-2-ylmethyl)-2-(2-(3-acetyl-7-methyl-5-(2-methylpyrimidin-5-yl)-1H-pyrazolo[3,4-c]pyridin-1-yl)acetyl)-N-(6-bromo-3-methylpyridin-2-yl)-2-azabicyclo[3.1.0]hexane-3-carboxamide]	< 1000 nM
CC(=O)c1nn(CC(=O)N2[C@H](C(=O)Nc3nc(Br)ccc3C)C[C@@]3(CCCN(C)C)C[C@@H]23)c2c(CF)cc(-c3cnc(C)nc3)cc12 [Compound 345, (1R,3S,5R)-2-(2-(3-acetyl-7-(fluoromethyl)-5-(2-methylpyrimidin-5-yl)-1H-indazol-1-yl)acetyl)-N-(6-bromo-3-methylpyridin-2-yl)-5-(3-(dimethylamino)propyl)-2-azabicyclo[3.1.0]hexane-3-carboxamide]	< 1000 nM
CC(=O)c1nn(CC(=O)N2[C@H](C(=O)Nc3nc(Br)ccc3C)C[C@@]3(Cc4ncc(C(C)C)s4)C[C@@H]23)c2ccc(-c3cnc(C)nc3)cc12 [Compound 349, (1R,3S,5R)-2-(2-(3-acetyl-5-(2-methylpyrimidin-5-yl)-1H-indazol-1-yl)acetyl)-N-(6-bromo-3-methylpyridin-2-yl)-5-((5-isopropylthiazol-2-yl)methyl)-2-azabicyclo[3.1.0]hexane-3-carboxamide]	< 1000 nM
CC(=O)c1nn(CC(=O)N2[C@H](C(=O)Nc3nc(Br)ccc3C)C[C@@]3(CN4CC(C)(C)C4)C[C@@H]23)c2c(C)cc(-c3cnc(C)nc3)cc12 [Compound 350]	< 1000 nM
CC(=O)c1nn(CC(=O)N2[C@H](C(=O)Nc3nc(Br)ccc3C)C[C@@]3(CN4CCCC4)C[C@@H]23)c2c(CF)cc(-c3cnc(C)nc3)cc12 [Compound 351, (1R,3S,5R)-2-(2-(3-acetyl-7-(fluoromethyl)-5-(2-methylpyrimidin-5-yl)-1H-indazol-1-yl)acetyl)-N-(6-bromo-3-methylpyridin-2-yl)-5-(pyrrolidin-1-ylmethyl)-2-azabicyclo[3.1.0]hexane-3-carboxamide]	< 1000 nM
CC(=O)c1nn(CC(=O)N2[C@H](C(=O)Nc3nc(Br)ccc3C)C[C@@]3(CN4CCC4)C[C@@H]23)c2c(CF)cc(-c3cnc(C)nc3)cc12 [Compound 353, (1R,3S,5R)-2-(2-(3-acetyl-7-(fluoromethyl)-5-(2-methylpyrimidin-5-yl)-1H-indazol-1-yl)acetyl)-5-(azetidin-1-ylmethyl)-N-(6-bromo-3-methylpyridin-2-yl)-2-azabicyclo[3.1.0]hexane-3-carboxamide]	< 1000 nM
CC(=O)c1nn(CC(=O)N2[C@H](C(=O)Nc3nc(Br)ccc3C)C[C@@]3(CN4CC5(CCC5)C4)C[C@@H]23)c2c(CF)cc(-c3cnc(C)nc3)cc12 [Compound 354, (1R,3S,5R)-5-(2-azaspiro[3.3]heptan-2-ylmethyl)-2-(2-(3-acetyl-7-(fluoromethyl)-5-(2-methylpyrimidin-5-yl)-1H-indazol-1-yl)acetyl)-N-(6-bromo-3-methylpyridin-2-yl)-2-azabicyclo[3.1.0]hexane-3-carboxamide]	< 1000 nM
CC(=O)c1nn(CC(=O)N2[C@H](C(=O)Nc3nc(Br)ccc3C)C[C@@]3(CN4CC(C)(C)C4)C[C@@H]23)c2c(CF)cc(-c3cnc(C)nc3)cc12 [Compound 355, (1R,3S,5R)-2-(2-(3-acetyl-7-(fluoromethyl)-5-(2-methylpyrimidin-5-yl)-1H-indazol-1 yl)acetyl)-N-(6-bromo-3-methylpyridin-2-yl)-5-((3,3-dimethylazetidin-1-yl)methyl)-2-azabicyclo[3.1.0]hexane-3-carboxamide]	< 1000 nM
CC(=O)c1nn(CC(=O)N2[C@H](C(=O)Nc3nc(Br)ccc3CN3CCn4c(nnc4C(F)(F)F)C3)C[C@@]3(C)C[C@@H]23)c2ccc(-c3cnc(C)nc3)cc12 [Compound 357, (1R,3S,5R)-2-(2-(3-acetyl-5-(2-methylpyrimidin-5-yl)-1H-indazol-1-yl)acetyl)-N-(6-bromo-3-((3-(trifluoromethyl)-5,6-dihydro-[1,2,4]triazolo[4,3-a]pyrazin-7(8H)-yl)methyl)pyridin-2-yl)-5-methyl-2-azabicyclo[3.1.0]hexane-3-carboxamide]	< 1000 nM
CC(=O)c1nn(CC(=O)N2[C@H](C(=O)Nc3nc(Br)ccc3C)C[C@@]3(Cc4nnco4)C[C@@H]23)c2c(C)cc(-c3cnc(C)nc3)cc12 [Compound 359, (1R,3S,5R)-5-((1,3,4-Oxadiazol-2-yl)methyl)-2-(2-(3-acetyl-7-methyl-5-(2-methylpyrimidin-5-yl)-1H-indazol-1-yl)acetyl)-N-(6-bromo-3-methylpyridin-2-yl)-2-azabicyclo[3.1.0]hexane-3-carboxamide]	< 1000 nM
CC(=O)c1nn(CC(=O)N2[C@H](C(=O)Nc3nc(Br)ccc3C)C[C@@]3(Cc4nnc(C)o4)C[C@@H]23)c2c(C)cc(-c3cnc(C)nc3)cc12 [Compound 360, (1R,3S,5R)-2-(2-(3-acetyl-7-methyl-5-(2-methylpyrimidin-5-yl)-1H-indazol-1-yl)acetyl)-N-(6-bromo-3-methylpyridin-2-yl)-5-((5-methyl-1,3,4-oxadiazol-2-yl)methyl)-2-azabicyclo[3.1.0]hexane-3-carboxamide]	< 1000 nM
Cc1ncc(-c2cc3c(C(N)=O)nn(CC(=O)N4[C@H](C(=O)Nc5nc(Br)ccc5C)C[C@@]5(C)C[C@@H]45)c3cn2)cn1 [Compound 361, 1-(2-((1R,3S,5R)-3-((6-bromo-3-methylpyridin-2-yl)carbamoyl)-5-methyl-2-azabicyclo[3.1.0]hexan-2-yl)-2-oxoethyl)-5-(2-methylpyrimidin-5-yl)-1H-pyrazolo[3,4-c]pyridine-3-carboxamide]	< 1000 nM
CC(=O)c1nn(CC(=O)N2[C@H](C(=O)Nc3nc(Br)ccc3-c3nnc(C(C)C)o3)C[C@@]3(C)C[C@@H]23)c2ccc(-c3cnc(C)nc3)cc12 [Compound 362, (1R,3S,5R)-2-(2-(3-acetyl-5-(2-methylpyrimidin-5-yl)-1H-indazol-1-yl)acetyl)-N-(6-bromo-3-(5-isopropyl-1,3,4-oxadiazol-2-yl)pyridin-2-yl)-5-methyl-2-azabicyclo[3.1.0]hexane-3-carboxamide]	1000 to 10000 nM
COc1ccc(Br)nc1NC(=O)[C@@H]1C[C@@]2(C)C[C@H]2N1C(=O)Cn1nc(C(C)=O)c2cc(-c3cnc(C)nc3)ccc21 [Compound 363, (1R,3S,5R)-2-(2-(3-acetyl-5-(2-methylpyrimidin-5-yl)-1H-indazol-1-yl)acetyl)-N-(6-bromo-3-methoxypyridin-2-yl)-5-methyl-2-azabicyclo[3.1.0]hexane-3-carboxamide]	< 1000 nM
CC(=O)c1nn(CC(=O)N2[C@H](C(=O)Nc3nc(Br)ccc3CN3CC(F)C3)C[C@@]3(C)C[C@@H]23)c2ccc(-c3cnc(C)nc3)cc12 [Compound 364, (1R,3S,5R)-2-(2-(3-acetyl-5-(2-methylpyrimidin-5-yl)-1H-indazol-1-yl)acetyl)-N-(6-bromo-3-((3-fluoroazetidin-1-yl)methyl)pyridin-2-yl)-5-methyl-2-azabicyclo[3.1.0]hexane-3-carboxamide]	< 1000 nM
CC(=O)c1nn(CC(=O)N2[C@H](C(=O)Nc3nc(Br)ccc3CC#N)C[C@@]3(C)C[C@@H]23)c2c(C)cc(-c3cnc(C)nc3)cc12 [Compound 365, (1R,3S,5R)-2-(2-(3-acetyl-7-methyl-5-(2-methylpyrimidin-5-yl)-1H-indazol-1-yl)acetyl)-N-(6-bromo-3-(cyanomethyl)pyridin-2-yl)-5-methyl-2-azabicyclo[3.1.0]hexane-3-carboxamide]	< 1000 nM
CC(=O)c1nn(CC(=O)N2[C@H](C(=O)Nc3nc(Br)ccc3C)C[C@@]3(CN4CC5(CC5)C4)C[C@@H]23)c2c(C)cc(-c3cnc(C)nc3)cc12 [Compound 366, (1R,3S,5R)-5-(5-azaspiro[2.3]hexan-5-ylmethyl)-2-(2-(3-acetyl-7-methyl-5-(2-methylpyrimidin-5-yl)-1H-indazol-1-yl)acetyl)-N-(6-bromo-3-methylpyridin-2-yl)-2-azabicyclo[3.1.0]hexane-3-carboxamide]	< 1000 nM
Cc1ncc(-c2ccc3c(c2)c(CC#N)nn3CC(=O)N2[C@H](C(=O)Nc3nc(Br)ccc3C)C[C@@]3(C)C[C@@H]23)cn1 [Compound 367, (1R,3S,5R)-N-(6-bromo-3-methylpyridin-2-yl)-2-(2-(3-(cyanomethyl)-5-(2-methylpyrimidin-5-yl)-1H-indazol-1-yl)acetyl)-5-methyl-2-azabicyclo[3.1.0]hexane-3-carboxamide]	> 10000 nM
Cc1ncc(-c2ccc3c(c2)c(C(C)(C)C#N)nn3CC(=O)N2[C@H](C(=O)Nc3nc(Br)ccc3C)C[C@@]3(C)C[C@@H]23)cn1 [Compound 368, (1R,3S,5R)-N-(6-bromo-3-methylpyridin-2-yl)-2-(2-(3-(2-cyanopropan-2-yl)-5-(2-methylpyrimidin-5-yl)-1H-indazol-1-yl)acetyl)-5-methyl-2-azabicyclo[3.1.0]hexane-3-carboxamide]	> 10000 nM

same assay, conditions: Table 8; Factor D 80 nM, substrate Z-L-Lys-SBz; read-out: IC50

Structure (SMILES)	IC50
COC(=O)CCCCCCCCCCCCCCCCC(=O)N[C@@H](CCC(=O)NCCOCCOCC(=O)NCCOCCOCC(=O)NC[C@@]12C[C@@H](C(=O)Nc3nc(Br)ccc3C)N(C(=O)Cn3nc(C(C)=O)c4cc(-c5cnc(C)nc5)ccc43)[C@@H]1C2)C(=O)OC [Compound 358, (S)-methyl 1-((1R,3S,5R)-2-(2-(3-acetyl-5-(2-methylpyrimidin-5-yl)-1H-indazol-1-yl)acetyl)-3-((6-bromo-3-methylpyridin-2-yl)carbamoyl)-2-azabicyclo[3.1.0]hexan-5-yl)-24-(methoxycarbonyl)-3,12,21,26-tetraoxo-5,8,14,17-tetraoxa-2,11,20,25-tetraazatritetracontan-43-oate]	> 10000 nM
